Assay results: patent US11160770B2, “Compounds, compositions and methods for treating oxidative DNA damage disorders” (Indiana University Research and Technology Corporation, priority 2011, dated 2021)

Legend:
[1] = system: cisplatin treated neuronal cells; assay: Trypan blue cell survival following cisplatin treatment; assay type: cell-based, rat; settings: E3330 20 μM; cisplatin 0-100 mM; trypan blue on days 11, 12, 13
Source text: (§1) EXAMPLE. Assay Methods. Sensory neuronal cultures grown on Lab-Tek microscope chamber slides were processed for immunofluorescence as previously published using a peripherin antibody (1:500) and HA antibody (1:500)[28]. Images were collected in red (peripherin), green (HA), and bright-field modes. A Zeiss LSM offline browser (R4.0: Carl Zeiss Inc.; Thornwood, N.Y.) was used to determine co-localization of peripherin and HA. For trypan blue exculsion, equal volume of 0.4% (w/v) Trypan blue to cell suspension were combined, mixed and scored under phase contrast microscope. Dead cells were those that take up the trypan blue and stain blue, whereas the live cells have yellow nuclei.
Referring to FIG. 2, cells were harvested on day 1. The corresponding siRNA (100 nM) was added on day 3, and removed on day 5. E3330 (20 μM) was dosed on day 7 and remained in the cultures for 2 days. E3330 (20 μM) and/or cisplatin ([…]) are each dosed day 10 with fresh media. Trypan blue assay is performed on days 11, 12, and 13. CGRP release assay is performed on day 11. N=3, *p<0.05.

[2] = system: sensory neuronal cultures; assay type: cell-based, rat
Protocol: EXAMPLE. Cell Cultures. Neuronal cultures were prepared from adult male (150-175 g) Sprague-Dawley rats (Harlan, Indianapolis, Ind.) as described in the published literature. Briefly, hippocampal cells were dissociated using papain and mechanical agitation and separated by gradient centrifugation. The pellet of cells from a discontinuous gradient of Optiprep in L-15 media was washed then resuspended in 1 mL of growth media consisting of Neurobasal Medium supplemented with 0.5 mM L-glutamine, 2% B-27 Supplement minus AO, 50 mg/mL Penicillin-Streptomycin, and 5 ng/mL of Basic Fibroblast Growth Factor (BFGF). Approximately 60,000 cells were plated onto poly-D-lysine and laminin coated plates and grown for 6-14 days in 5% CO2 at 37° C. Growth medium was changed every other day. For sensory neuronal culture, cells were dissociated using collagenase and mechanical dissociation. Approximately 30,000 DRG cells were plated into each well of 12 well culture plates or onto Lab-Tek chamber slides all precoated with poly-D-lysine and laminin. The sensory neurons were maintained in F-12 media supplemented with 10% horse serum, 2 mM glutamine, 100 μg/mL normocin, 50 μg/mL penicillin, 50 μg/mL streptomycin, 50 μM 5-fluoro-2′-deoxyuridine, 150 μM uridine, and 30 ng/mL NGF in 3% CO2 at 37° C. Growth medium was changed every other day and the cells were used after 11-13 days of culture.
as §1, with “Dead cells were those that take up the trypan blue and stain blue, whereas the live cells have yellow nuclei.” left out
EXAMPLE. […] The mean % of cells surviving 24 h after exposure to IR as measured by trypan blue exclusion was evaluated. […]

DRG cells [3] = assay: CGRP release from DRG cells following cisplatin treatment; assay type: cell-based, rat; settings: E3330 20 μM pretreatment 3 days, then cisplatin 10 μM 24 hours
Protocol: EXAMPLE. CGRP. Release studies were performed on cells. Briefly, neuronal cultures were washed once with HEPES buffer consisting of 25 HEPES, 135 NaCl, 3.5 KCl, 2.5 CaCl2, 1 MgCl2, 3.3 d-glucose (each in mmol/L), and 0.1% bovine serum albumin (pH 7.4), maintained at 37° C., and then incubated for successive 10-min intervals with 0.4 mL of the same buffer in the absence or presence of drugs. Basal or resting release was determined by exposing the cells to HEPES buffer alone, whereas stimulated release was determined by exposing the cultures to 30 nmol/L capsaicin. Cells then were reexposed to HEPES buffer without drugs for one or two 10-min incubations to reestablish resting release. During incubations, the cells were maintained in at 37° C. After each incubation, the buffer was removed to measure the amount of CGRP using RIAs. […] Total content is determined by adding the total amount released in all incubations to the amount remaining in the cells. The release data is calculated as a percentage of the total peptide content in the cells. Because CGRP was measured by RIA, results are expressed as CGRP-like immunoreactivity (iCGRP). […]
EXAMPLE. […] Basal levels of CGRP without induction and cumulative total basal are both monitored, indicating correct functioning of the assay.

DRG cells [4] = assay: FACS apoptosis assay in cisplatin treated DRG cells; assay type: cell-based; settings: cisplatin 50 μM, E3330 50 μM co-treatment, 3 days
Protocol: EXAMPLE. DRG cells are treated with cisplatin (50 μM), with and without co-treatment with E3330 (50 μM), for 3 days. The cells are evaluated by FACS assay and compared to control.

## CCCCCCCCC/C(=C\C1=C(C)C(=O)C(OC)=C(OC)C1=O)C(=O)O [Example 28]
[1]
  cell death in cisplatin treated neuronal cells: attenuate cell death
[2]; 20 μM E3330, 3 days prior to and throughout 3 days of radiation (10 Gy/day), 24 h after last dose
  cell viability (effect on IR-induced cell death): effectively blocks IR's effects
[2]; male, Sprague-Dawley, rat, 20 μM
  cell viability: 51±3%
[2]; male, Sprague-Dawley, rat, 6 days, 10 μM
  cell viability (% cells surviving, trypan blue exclusion): 81±3%
DRG cells [3]; FIG. 3(B)
  total content CGRP: no statistical significance difference
DRG cells [3]; capsaicin 30 nM
  capsaicin-induced CGRP release from DRG cells after cisplatin: recovery of CGRP release
DRG cells [4]
  apoptosis arising from cisplatin treatment: decrease apoptosis
